Laboratory results reported in PubChem BioAssay (NCI).
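Where inhibition never reached the appropriate level, the endpoint shown equals the highest concentration tested. Otherwise, values were interpolated linearly from a five-concentration, 48-hour dose response in 96-well plates. TGI denotes the concentration required for complete inhibition of growth.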

Legend:
Experiment in all cases: DTP human tumour cell line panel, 48 h
[1] = system: CAKI-1 renal
[2] = system: SNB-19 CNS
[3] = system: SW-620 colon
[4] = system: SNB-75 CNS
[5] = system: MDA-N
[6] = system: NCI-H460 lung
[7] = system: HOP-62 NSCLC
[8] = system: CCRF-CEM leukemia
[9] = system: MCF7 breast
[10] = system: EKVX NSCLC
[11] = system: SK-MEL-5 melanoma
[12] = system: M14 melanoma
[13] = system: SN12C renal
[14] = system: HCT-116 colon
[15] = system: OVCAR-3 ovarian
[16] = system: ACHN renal

Structure (SMILES)	TGI [1] [µM]	TGI [2] [µM]	TGI [3] [µM]	TGI [4] [µM]	TGI [5] [µM]	TGI [6] [µM]	TGI [7] [µM]	TGI [8] [µM]	TGI [9] [µM]	TGI [10] [µM]	TGI [11] [µM]	TGI [12] [µM]	TGI [13] [µM]	TGI [14] [µM]	TGI [15] [µM]	TGI [16] [µM]
COC(=O)C1(Cc2ccc3c(c2)CCC3)Cc2cc3c(cc2C1=O)CCC3 (configuration not stated)	> 31.6	> 46.4	> 46.4	> 46.4	> 46.4	> 46.4	> 46.4	> 46.4	> 46.4	> 46.4	32.3	> 46.4	> 46.4	> 46.4	> 46.4	> 46.4
CCC(c1nc2ccccc2c(=O)n1NC(=O)C(C)(C)C)C1(O)CCCCC1 (configuration not stated)	> 100	> 100	> 100	> 100	> 100	> 100	> 100	> 100	> 100	> 100	> 100	> 100	> 100	> 100	> 100	> 100
CC(C)=CCC[C@@H](C)C1=C(O)C(Nc2ccccc2F)=C(C)C(=O)C1=O	48.2	> 100	> 100	> 78.8	> 100	> 100	> 55.7	5.86	> 90	> 100	42.3	> 57.6	> 100	47.6	> 30.4	49.5
CC(=O)C1C(=O)C(=O)N(c2ccc([N+](=O)[O-])cc2Cl)C1=O (configuration not stated)	> 100	> 100	> 100	> 100	> 100	> 100	> 100	> 100	> 100	> 100	> 100	> 100	> 100	> 100	> 100	> 100
COc1ccc2c(c1)-c1c(c3ccccc3n1CCN1CCOCC1)CC2	81.9	71.5	> 100	49	> 100	34.2	74.8	85.8	> 100	63.8	31.3	> 100	> 100	76.8	56.6	> 100
COc1ccc(-c2cc(-c3ccc(Nc4ccnc5cc(C(F)(F)F)ccc45)cc3)[nH]c(=O)c2C#N)cc1	> 100	56.7	> 100	62.2	98.5	> 100	> 41.1	> 100	> 100	> 100	> 100	> 100	> 100	> 100	> 100	> 100
OC1NC2CC3NC(O)C(O)NC3CC2NC1O (configuration not stated)	> 100	> 100	> 100	> 100	> 100	> 100	> 100	> 100	> 100	> 100	> 100	> 100	> 100	> 100	> 100	> 100
CC1(C)N=C(/C(C#N)=[N+](/[O-])C(=O)c2ccccc2)C(C)(C)N1O	> 100	> 100	> 100	> 100	> 100	> 100	> 100	> 100	> 100	> 100	> 100	> 100	> 100	> 100	> 100	> 100
S=C1NC2=C(COC/C2=C\c2ccccc2Cl)C(c2ccccc2Cl)N1 (configuration not stated)	> 100	> 100	> 100	> 100	> 100	> 100	> 100	45.1	63.1	> 100	34.6	> 100	> 100	80.6	> 100	> 100
CCC(=O)n1c(=O)n(-c2ccc([N+](=O)[O-])cc2)c(=O)n1C(=O)CC	> 100	> 100	> 100	> 100	> 100	> 100	> 100	> 100	> 100	> 100	> 100	> 100	> 100	> 100	> 100	> 100
CCOC(=O)C1CCCC1S(=O)(=O)c1ccc(C)cc1 (configuration not stated)	> 100	> 100	> 100	> 100	> 100	> 100	> 100	> 100	> 100	> 100	> 100	> 100	> 100	> 100	> 100	> 100
O=c1[nH]c2cc([N+](=O)[O-])c(N(CCO)CCO)c([N+](=O)[O-])c2[nH]1	> 100	> 100	> 100	89.4	> 100	43.2	> 100	> 100	> 100	54.4	39.7	89	> 100	87.5	33.3	> 100
